Reference: patent publication US20170368082A1, “FORMULATIONS OF BRINCIDOFOVIR” (priority 2016, published 2017)

Test: Blood and plasma pharmacokinetics of total radioactivity after IV or oral [^14C]brincidofovir
Assay type: in vivo, male Sprague Dawley and Long-Evans rats
Experimental: The study utilized 4 groups of male SD rats (albino), and 3 groups of male LE rats (pigmented); a total of 39 rats. All animals were obtained from Hilltop Lab Animals, Inc. (Scottdale, Pa.). Rats weighed between 214 and 265 g at dosing. Rats in Groups 1, 2, 3, and 4 were administered a single 2-hour (h) IV infusion of [^14C]brincidofovir at a target dose of 15 mg/kg. Rats in Group 5 were administered a single 2-h IV infusion of [^14C]brincidofovir at a target dose of 2 mg/kg. Rats in Group 6, and 7 were administered a single oral gavage administration of [^14C]brincidofovir at a target dose of 15 mg/kg. Three dosing formulations (one for high dose IV, one for low dose IV, and one for PO dose) were prepared at QPS on the day of dosing. The IV formulation for Groups 1, 2, 3, and 4 contained a vehicle of 10 mM sodium phosphate buffer in 5% dextrose solution at pH 8.0(±0.1). The IV formulation for Group 5 contained a vehicle of 16 mM sodium phosphate buffer in 5% dextrose solution at pH 8.0(±0.1), and the PO dosing formulation contained a vehicle of 12.5 mM sodium phosphate buffer at pH 8.0(±0.1). The IV dose formulation for Group 5 and the PO dose formulation for Groups 6 and 7 contained higher concentration of buffer so that the final buffer concentration was approximately 10 mM in all dose formulations.
Blood was collected from each animal in Group 2 (IV infusion) for plasma and blood analysis at the times listed below.
Terminal blood samples were collected by cardiac puncture into pre-labeled blood collection tubes that contained K2EDTA as an anticoagulant. A terminal sample (N=1 per time point) was collected at 0.5, 1, 2, 4, 8, 24, and 72 h after initiation of infusion and the volume was not limited. Triplicate weighed aliquots of blood (0.100 g) were removed and analyzed for total radioactivity using combustion followed by LSC. Blood aliquots were maintained at approximately 4° C. until analysis. The remaining blood samples were maintained on wet ice (approximately 4° C.) and then centrifuged to obtain plasma within 1 h of the blood collection time. Centrifuge settings were recorded in the study notebook. Duplicate aliquots of plasma (0.050 mL) were analyzed for radioactivity using direct counting by LSC, and residual plasma was stored at approximately −70° C. and was saved for possible future analysis under a separate study protocol. Residual red blood cells and the animal carcasses of Group 2 rats were discarded as radioactive waste.
Each rat was deeply anesthetized via isoflurane anesthesia, a blood sample was collected by cardiocentesis (approximately 2 mL) into tubes that contained K2EDTA as the anticoagulant, and the rat was euthanized by being frozen in a hexane/solid carbon dioxide bath for at least 15 min. The blood samples were maintained on wet ice (approximately 4° C.) and then centrifuged to obtain plasma within 1 h of the blood collection time. Centrifuge settings were recorded in the study notebook. Duplicate aliquots of plasma (0.050 mL) were analyzed for radioactivity using direct counting by LSC, and residual plasma was stored at approximately −70° C. and was saved for possible future analysis under a separate study protocol. Residual red blood cells were discarded as radioactive waste.
Triplicate weighed aliquots (˜0.100 g) of blood aliquots (Group 2 only) were combusted in the Packard Sample Oxidizer, followed by LSC analysis.
Urine (0.300 mL), and plasma (0.050 mL) specimens were thawed, if necessary, then aliquoted in duplicate by volume and analyzed by LSC. Volumes or weights of sample aliquots were documented in the study records. Ultima Gold scintillation fluid (5 mL, PerkinElmer) was added to each urine, and plasma aliquot, aliquot were mixed thoroughly, and then analyzed by LSC for radioactivity.

[1] = 0.5 h, SD rats Group 2, 15 mg/kg IV
[2] = 1 h, SD rats Group 2, 15 mg/kg IV
[3] = 2 h, SD rats Group 2, 15 mg/kg IV
[4] = 4 h, SD rats Group 2, 15 mg/kg IV
[5] = 8 h, SD rats Group 2, 15 mg/kg IV
[6] = 24 h, SD rats Group 2, 15 mg/kg IV
[7] = 72 h, SD rats Group 2, 15 mg/kg IV
[8] = Blood, SD rats Group 2, 15 mg/kg IV
[9] = Plasma, SD rats Group 2, 15 mg/kg IV
[10] = SD rats Group 2, 15 mg/kg 2-h IV
[11] = Plasma (LSC), PO 15 mg/kg, Group 7
[12] = Plasma (by LSC), 15 mg/kg, Group 7 vs Group 4

In the case of CCCCCCCCCCCCCCCCOCCCOP(=O)(O)CO[C@H](CO)Cn1ccc(N)nc1=O [[^14C]brincidofovir], the “Plasma t1/2” value (15 mg/kg PO) is reported as “approximately 5 h”, the “Blood Concentration” value [1] is reported as 1.666 μg equiv/mL and the “Blood to Plasma Ratio” value [1] is reported as 0.65. The “Plasma Concentration” value [1] was 2557 ng/mL, the “Blood Concentration” value [2] was 3.017 μg equiv/mL and the “Blood to Plasma Ratio” value [2] was 0.65. For the same compound, the “Plasma Concentration” value [2] was 4609 ng/mL, the “Blood Concentration” value [3] was 6.393 μg equiv/mL and the “Blood to Plasma Ratio” value [3] was 0.62. For the same compound, the “Plasma Concentration” value [3] was 10297 ng/mL, the “Blood Concentration” value [4] was 3.845 μg equiv/mL and the “Blood to Plasma Ratio” value [4] was 0.72. The “Plasma Concentration” value [4] was 5363 ng/mL, the “Blood Concentration” value [5] was 1.584 μg equiv/mL and the “Blood to Plasma Ratio” value [5] was 0.81. The “Plasma Concentration” value [5] was 1961 ng/mL, the “Blood Concentration” value [6] was 0.294 μg equiv/mL and the “Blood to Plasma Ratio” value [6] was 1.26. For the same compound, the “Plasma Concentration” value [6] was 234 ng/mL, the “Blood Concentration” value [7] was 0.057 μg equiv/mL and the “Blood to Plasma Ratio” value [7] was 1.27. The “Plasma Concentration” value [7] was 45 ng/mL, the “Blood to Plasma Ratio” value (72 hours, 2 mg/kg IV) was 1.42 and the “Blood to Plasma Ratio” value (72 hours, 15 mg/kg IV) was 3.06. For the same compound, the AUCall [8] was 50.836 μg equiv-h/mL, the “AUCinf—obs” value [8] was 52.028 μg equiv-h/mL and the AUClast [8] was 50.836 μg equiv-h/mL. For the same compound, the Cmax [8] was 6.393 μg equiv/mL, the Tmax [8] was 2 h and the t1/2 [8] was 14.5 h. The “Blood to Plasma Ratio” value (Group 2 SD rats, 24 h) was 1.26, the “Blood to Plasma Ratio” value (Group 2 SD rats, 72 h) was 1.27 and the “Blood:Plasma Ratio” value (Group 3/SD, IV 15 mg/kg, 2 h) was 0.96. For the same compound, the “Blood:Plasma Ratio” value (Group 3/SD, IV 15 mg/kg, 24 h) was 1.23, the “Blood:Plasma Ratio” value (Group 4/LE, IV 15 mg/kg, 1 h) was 1.10 and the “Blood:Plasma Ratio” value (Group 4/LE, IV 15 mg/kg, 2 h) was 1.08. The “Blood:Plasma Ratio” value (Group 4/LE, IV 15 mg/kg, 4 h) was 0.92, the “Blood:Plasma Ratio” value (Group 4/LE, IV 15 mg/kg, 8 h) was 1.39 and the “Blood:Plasma Ratio” value (Group 4/LE, IV 15 mg/kg, 24 h) was 1.46. For the same compound, the “Blood:Plasma Ratio” value (Group 4/LE, IV 15 mg/kg, 72 h) was 3.06, the “Blood:Plasma Ratio” value (Group 5/LE, IV 2 mg/kg, 2 h) was 0.89 and the “Blood:Plasma Ratio” value (Group 5/LE, IV 2 mg/kg, 8 h) was 1.03. The “Blood:Plasma Ratio” value (Group 5/LE, IV 2 mg/kg, 24 h) was 1.41, the “Blood:Plasma Ratio” value (Group 5/LE, IV 2 mg/kg, 72 h) was 1.25 and the “Blood:Plasma Ratio” value (Group 6/SD, PO 15 mg/kg, 2 h) was 0.64. For the same compound, the “Blood:Plasma Ratio” value (Group 6/SD, PO 15 mg/kg, 24 h) was 0.78, the “Blood:Plasma Ratio” value (Group 7/LE, PO 15 mg/kg, 1 h) was 1.13 and the “Blood:Plasma Ratio” value (Group 7/LE, PO 15 mg/kg, 2 h) was 0.98. The “Blood:Plasma Ratio” value (Group 7/LE, PO 15 mg/kg, 4 h) was 0.80, the “Blood:Plasma Ratio” value (Group 7/LE, PO 15 mg/kg, 8 h) was 0.76 and the “Blood:Plasma Ratio” value (Group 7/LE, PO 15 mg/kg, 24 h) was 0.87. The “Blood to Plasma Ratio” value (IV infusion, 1 to 24 hours after start) was 0.89-1.46, the “Blood to plasma ratio, median” value (IV or oral) was 1.00 and the “Plasma AUClast” value (LE rats, 15 mg/kg PO) was 21.0 μg equiv·h/mL. The “Plasma Cmax of total radioactivity” value (LE rats, 15 mg/kg PO) was 1.5 μg equiv/mL, the “Plasma Tmax” value (LE rats, 15 mg/kg PO) was 8 h and the “Plasma concentration at 24 h post-dose” value (LE rats, 15 mg/kg PO) was 0.180 μg equiv/mL. The “Blood to Plasma Ratio” value (PO, LE rats, 1 h to 24 h) was 0.76-1.13, the AUCall [9] was 64.448 μg equiv-h/mL and the “AUCinf—obs” value [9] was 65.292 μg equiv-h/mL. The AUClast [9] was 64.448 μg equiv-h/mL, the Cmax [9] was 10.297 μg equiv/mL and the Tmax [9] was 2 h. For the same compound, the t1/2 [9] was 13.0 h, the “Plasma AUClast” value [10] was 64.4 μg equiv·h/mL and the “Plasma Cmax of total radioactivity” value [10] was 10.3 μg equiv/mL. The “Plasma Tmax” value [10] was 2 h, the “Plasma concentration at 72 h post-dose” value [10] was 0.045 μg equiv/mL and the “Plasma t1/2” value [10] was 13.0 h. The “Oral bioavailability of radioactivity (AUCall PO/AUCall IV)” value (blood) was 48%, the Radioactive bioavailability (oral) was “approximately 50%” and the “Blood:Plasma Ratio” value (oral administration, up to 24 h (Groups 6-7)) was 0.64-1.13. The “Oral bioavailability of radioactivity (AUCall PO/AUCall IV)” value (plasma) was 61%.

In the case of CCCCCCCCCCCCCCCCOCCCOP(=O)(O)CO[C@H](CO)Cn1ccc(N)nc1=O [[14C]brincidofovir], the AUCall [11] is reported as 22.3885 μg equiv · h/g and the Tmax [11] is reported as 8 h.

In the case of CCCCCCCCCCCCCCCCOCCCOP(=O)(O)CO[C@H](CO)Cn1ccc(N)nc1=O [[^14C] brincidofovir], the AUCall [11] is reported as 22.3885 μg equiv · h/g, the “AUCall Ratio (PO/IV)” value [12] is reported as 0.62 and the “Cmax Ratio (PO/IV)” value [12] is reported as 0.30. The AUCall (Plasma (by LSC), 2 h IV infusion 15 mg/kg, Group 4) was 36.3690 μg equiv · h/g, the “Tissue Concentration (168 h)” value (Plasma (by LSC), 2 h IV infusion 15 mg/kg, Group 4, LLOQ 0.036) was “BQL” and the “Tissue Concentration (168 h)” value (Plasma (by LSC), PO 15 mg/kg, Group 7, LLOQ 0.034) was “BQL”.
